Where a name gives a salt, the structure may show the parent alone.

T1 sequence (P25103 whole entry): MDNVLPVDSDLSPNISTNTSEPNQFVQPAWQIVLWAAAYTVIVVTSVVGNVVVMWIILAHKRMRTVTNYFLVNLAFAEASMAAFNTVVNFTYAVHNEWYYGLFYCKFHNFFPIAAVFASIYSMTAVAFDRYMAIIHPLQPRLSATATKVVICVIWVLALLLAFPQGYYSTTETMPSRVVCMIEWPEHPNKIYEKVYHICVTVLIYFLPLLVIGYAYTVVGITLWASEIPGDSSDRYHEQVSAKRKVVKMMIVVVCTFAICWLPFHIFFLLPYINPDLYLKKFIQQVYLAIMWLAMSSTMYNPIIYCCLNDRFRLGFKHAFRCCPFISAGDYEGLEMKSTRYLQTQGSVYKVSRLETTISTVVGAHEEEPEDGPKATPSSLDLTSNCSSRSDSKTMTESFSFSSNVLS

Test system in the first data set: not given
Experiment: not given
Details: not given
With `CNC(=O)N1CC[C@H](OCc2cc(C(F)(F)F)cc(C(F)(F)F)c2)[C@H](Cc2ccccc2)C1` (relative stereo) [Example 405, cis-3-Benzyl-4-[[3,5-bis(trifluoromethyl)benzyl]oxy]-N-methyl-1-piperidinecarboxamide], the melting point (as a rule, the temperature of the solid-liquid transition) lay in the range of 160 to 161 °C.

Another data set concerns the target T1, substance P receptor from human lymphoblast cells (IM-9) (Homo sapiens, UniProt P25103).
T1 construct: The receptor was prepared from human lymphoblast cells (IM-9); endogenous in cells; host or cells: IM-9 human lymphoblast cells (crude membrane fraction, 40,000xG pellet)
Kind of data set: Radioligand receptor binding inhibitory activity (125I-BHSP binding, receptor from human lymphoblast cells (IM-9)).
Details: not given
How it is done: Radioligand receptor binding inhibitory activity (Binding inhibitory activity using receptor from human lymphoblast cells (IM-9))
The method of M. A. Cascieri et al., “Molecular Pharmacology 42, p. […] The receptor was prepared from human lymphoblast cells (IM-9). IM-9 cells (2×10^5 cells/ml) were inoculated and incubated for 3 days (one liter), which was then subjected to centrifuge for 5 minutes at 500×G to obtain cell pellets. […] The residue was twice washed with 30 ml of the above-mentioned buffer, which was then preserved frozen (−80° C.) as a specimen of the receptor.
The specimen was suspended in a reaction buffer (50 mM Tri-HCl buffer (pH 7.4), 0.02% bovine serum albumin, 1 mM phenylmethylsulfonyl fluoride, 2 μg/ml chymostatin, 40 μg/ml bacitracin and 3 mM manganese chloride) to have protein in the concentration of 0.5 mg/ml of protein and 100 μl portion of the suspension was used in the reaction. […] The amount of nonspecific binding was determined by adding substance P at a final concentration of 2×10^−6 M.
After the reaction, using a cell harvester (290 PHD, Cambridge Technology, Inc, U.S.A.), rapid filtration was carried out through a glass filter (GF/B, Whatman, U.S.A.) to stop the reaction. After washing three times with 250 μl of 50 mM Tris-HCl buffer (pH 7.4) containing 0.02% bovine serum albumin, the radioactivity remaining on the filter was determined with a gamma counter. Before use, the filter was immersed in 0.1% polyethyleneimine for 24 hours and air-dried.
Turning to `COc1ccc(-n2nnnc2C(F)(F)F)cc1CNC1CCN(C(=O)CCNC(C)=O)CC1c1ccccc1` (racemic) [Example 761], the IC50 – broadly, the concentration that gives 50% inhibition – is 0.054 nM.

`COc1ccc(-n2nnnc2C(F)(F)F)cc1CNC1CCN(C(=O)CNC(C)=O)CC1c1ccccc1` (racemic) [Example 753] yielded a half-inhibitory concentration (IC50) of 0.073 nM.

In turn, `COc1ccc(-n2nnnc2C(F)(F)F)cc1CNC1CCN(C(C)=O)CC1c1ccccc1` (racemic) [Example 762] had an IC50 of 0.049 nM.

The data set is the same for the next values; noted with them: 125I-BHSP binding, receptor from human lymphoblast cells (IM-9), 25° C., 30 minutes; read-out: IC50 Value.
With `CC(=O)N1CCC(C(=O)N2CC[C@H](NCc3cc(-n4nnnc4C(F)(F)F)cc4c3OCC4)[C@H](c3ccccc3)C2)CC1` (single isomer, unassigned) [Example 88, (−)-cis-1-[(1-Acetyl-4-piperidinyl)carbonyl]-3-phenyl-N-[[5-[5-(trifluoromethyl)-1H-tetrazol-1-yl]-2,3-dihydro-1-benzofuran-7-yl]methyl]-4-piperidineamine hydrochloride], the half-maximal inhibitory concentration (IC50) turned out to be 0.06 nM.

For `CCNC(=O)N1CCC(NCc2cc(-n3nnnc3C(F)(F)F)cc3c2OCC3)C(c2ccccc2)C1` (single isomer, unassigned; (-)) [Example 84, (−)-cis-N-Ethyl-3-phenyl-4-[[[5-[5-(trifluoromethyl)-1-H-tetrazol-1-yl]-2,3-dihydro-1-benzofuran-7-yl]methyl]amino]-1-piperidinecarboxamide hydrochloride], the IC50 came out at 0.051 nM.

For `CNC(=O)N1CCC(OCc2cc(C(F)(F)F)cc(C(F)(F)F)c2)C(c2ccccc2)C1` (single isomer, unassigned; (+)) [Example 413, (+)-cis-4-[[3,5-Bis(trifluoromethyl)benzyl]oxy]-N-methyl-3-phenyl-1-piperidinecarboxamide], the IC50 worked out at 0.23 nM.

`COc1ccc(-n2nnnc2C(F)(F)F)cc1CNC1CCN(C(=O)CO)CC1c1ccccc1` (racemic) [Example 760]: the IC50 was 0.085 nM.

As to `CCNC(=O)N1CC[C@H](NCc2cc(-n3nnnc3C(F)(F)F)ccc2OC)[C@H](c2ccccc2)C1` (single isomer, unassigned) [Example 75, (+)-cis-N-Ethyl-4-[[2-methoxy-5-[5-(trifluoromethyl)-1H-tetrazol-1-yl]benzyl]amino]-3-phenyl-1-piperidinecarboxamide hydrochloride], the IC50 is 0.025 nM.

For `COc1ccc(-n2nnnc2C(F)(F)F)cc1CNC1CCN(C(=O)CN2C(=O)CCC2=O)CC1c1ccccc1` (racemic) [Example 764], the IC50 came out at 0.042 nM.

`CNC(=O)N1CC[C@H](NCc2cc(-n3nnnc3C(F)(F)F)ccc2OC)[C@H](c2ccccc2)C1` (single isomer, unassigned) [Example 72, (+)-cis-4-[[2-Methoxy-5-[5-(trifluoromethyl)-1H-tetrazol-1-yl]benzyl]amino]-N-methyl-3-phenyl-1-piperidinecarboxamide hydrochloride]: the half-maximal inhibitory concentration (IC50) worked out at 0.032 nM.

For the compound `COc1ccc(-n2nnnc2C(F)(F)F)cc1CNC1CCN(C(=O)Cn2cnnn2)CC1c1ccccc1` (racemic) [Example 757], the half-inhibitory concentration (IC50) came out at 0.067 nM.

In the case of `COc1ccc(-n2nnnc2C(F)(F)F)cc1CNC1CCN(C(=O)CS(C)(=O)=O)CC1c1ccccc1` (racemic) [Example 763], the IC50 was determined as 0.08 nM.

With `CC(=O)N1CCC(C(=O)N2CC[C@H](OCc3cc(C(F)(F)F)cc(C(F)(F)F)c3)[C@H](c3ccccc3)C2)CC1` [Example 70, (+)-(3R,4S)-1-[(1-Acetyl-4-piperidinyl)carbonyl]-4-[[3,5-bis(trifluoromethyl)benzyl]oxy]-3-phenylpiperidine], the 50% inhibitory concentration (IC50) worked out at 0.15 nM.

On to `COc1ccc(-n2nnnc2C(F)(F)F)cc1CNC1CCN(C(=O)C2CCN(C(C)=O)CC2)CC1c1ccccc1` (single isomer, unassigned; (-)) [Example 81, (−)-cis-1-[(1-Acetyl-4-piperidinyl)carbonyl]-N-[2-methoxy-5-[5-(trifluoroinethyl)-1H-tetrazol-1-yl]benzyl]-3-phenyl-4-piperidineamine hydrochloride], for which the concentration for half-maximal inhibition (IC50) was 0.058 nM.

Turning to `CNC(=O)N1CCC(NCc2cc(-n3nnnc3C(F)(F)F)cc3c2OCC3)C(c2ccccc2)C1` (racemic) [Example 722], the IC50 came to 0.11 nM.

With `COc1ccc(-n2nnnc2C(F)(F)F)cc1CNC1CCN(C(=O)C2CCN(S(C)(=O)=O)CC2)CC1c1ccccc1` (racemic) [Example 755], the IC50 was 0.096 nM.

Regarding `COCC(=O)N1CC[C@H](NCc2cc(-n3nnnc3C(F)(F)F)ccc2OC)[C@H](c2ccccc2)C1` (single isomer, unassigned) [Example 78, (+)-cis-1-(Methoxyacetyl)-N-[2-methoxy-5-[5-(trifluoromethyl)-1H-tetrazol-1-yl]benzyl]-3-phenyl-4-piperidineamine hydrochloride], the IC50 was determined as 0.06 nM.

Consider `CCNC(=O)N1CCC(NCc2cc(OC(F)(F)F)ccc2OC)C(c2ccccc2)C1` (single isomer, unassigned; (+)) [Example 613, (+)-cis-N-Ethyl-4-[[2-methoxy-5-(trifluoromethoxy)benzyl]amino]-3-phenyl-1-piperidinecarboxamide], for which the IC50 worked out at 0.07 nM.

For the origin of these results see patent publication US7622487B2, “Piperidine derivative, process for producing the same, and use” (Takeda Pharmaceutical Company Limited, priority 2002, dated 2009).
